Laboratory results published in patent US20040152750A1, “Novel glucagon antagonists” (priority 2002, published 2004).

melting point: 178 to 180 °C
Compound: O=C(O)CCNC(=O)c1ccc(N(Cc2ccc(C3=CCCCC3)cc2)C(=O)/C=C/c2cccc(OC(F)(F)F)c2)cc1 [Example 211, 3-(4-{(4-Cyclohex-1-enylbenzyl)-[3-(3-trifluoromethoxyphenyl)acryloyl]amino}benzoylamino) -propionic acid]
